{"source": "patent US10709140B2", "about": "“Methods and products for reducing the population size of Papilio demoleus L. (papilionidae)” (The University of The West Indies, priority 2010, dated 2020)", "key": {"P. demoleus [1]": {"system": "P. demoleus", "test": "Induced egg laying of P. demoleus on Piper amalago var. amalago plant sprayed with lime plant oil (choice test, Example 2)", "format": "in vivo, Papilio demoleus", "settings": "Piper amalago var. amalago plant sprayed with the attractant", "excerpt": "P. demoleus were induced to lay eggs on Piper amalago var. amalago plant to confirm its unsuitability to sustain target insects and to determine whether it could be used to reduce the population size of target insects. Natural Piper amalago var. amalago plant was considered a suitable non-host plant because P. demoleus would not feed or breed on it in the wild.\nTwelve pupae bred on lime plants were placed in the laying cage and were allowed to mate. Gravid females were given a choice of plants on which to lay: unsprayed lime, unsprayed Piper amalago var. amalago plant, and Piper amalago var. amalago plant sprayed with lime plant oil. Piper amalago var. amalago plant sprayed with lime plant oil was prepared using an aerosol spray containing 0.45% by weight lime plant oil in a hydrocarbon mixture. The aerosol mixture was applied to the young leaves of Piper amalago var. amalago plants twice daily.\nGravid females were allowed to lay eggs until the laying subsided on the tenth day. Of the 95 eggs laid, the majority were laid on Piper amalago var. amalago plant sprayed with lime oil. Sixty-one eggs, or 64%, were laid on Piper amalago var. amalago plant sprayed with lime oil. Only 34 eggs, or 36%, were laid on unsprayed lime plant. No eggs were laid on unsprayed Piper amalago var. amalago plant. […]"}, "P. demoleus [2]": {"system": "P. demoleus", "test": "Egg laying by P. demoleus on Piper aduncum cuttings sprayed with lime oil or d-limonene (choice test, Example 5)", "format": "in vivo, Papilio demoleus", "procedure": "Five P. demoleus pupae were placed in the cage. Upon hatching, the emerging adults were determined to be 3 males and 2 females. The butterflies were allowed to mate and given a choice of plants on which to lay by placing all around the cage unsprayed lime seedlings, unsprayed Piper aduncum cuttings, Piper aduncum cuttings sprayed with lime oil, and Piper aduncum cuttings sprayed with d-limonene. Egg laying was allowed to continue for up a total of 16 days, only the first 8 of which the Piper aduncum shoots remained fresh. Referring to Table 5A, a total of 16 eggs were laid in the first 8 days. The majority of eggs (62.5%) were laid on unsprayed lime plant. However, a significant number of eggs were laid on sprayed Piper aduncum shoots (37.5%). […] No eggs were laid on unsprayed Piper aduncum.\nAfter day 8, the Piper aduncum leaves began to wilt and were noticeably less attractive to gravid females. […] By day 20, no more eggs were laid, and the total number of eggs was counted.\nAll of the eggs that were laid on lime plant hatched into larvae that fed normally on the lime plant leaves on which they were laid. The 6 eggs laid on Piper aduncum shoots sprayed with lime oil or d-limonene hatched normally. The Piper aduncum shoots were still young, fresh, and otherwise capable of sustaining larvae when the eggs laid eggs on sprayed Piper aduncum shoots hatched. […]"}}, "data": [{"smiles": "C=C(C)[C@H]1CC=C(C)CC1", "note": "[d-limonene]", "values": [{"measurement": "breeding and feeding on sprayed Piper amalago var. amalago plants", "setting": "P. demoleus [1]", "result": "majority of the P. demoleus population was induced to breed, but not feed"}, {"measurement": "eggs laid on sprayed Piper aduncum", "setting": "P. demoleus [2]; Days 1-8, choice vs unsprayed lime and unsprayed Piper aduncum, total 16 eggs", "result": 3, "unit": "eggs"}, {"measurement": "eggs laid on sprayed Piper aduncum", "setting": "P. demoleus [2]; Days 9-20 as titled, total 39 eggs", "result": 3, "unit": "eggs"}]}]}
